From ChEMBL document CHEMBL1759965, “Synthesis and pharmacological evaluation of bivalent antagonists of the nociceptin opioid receptor” (Eur J Med Chem, 2011)
Active and inactive are the calls of the source. The calls are words filed in the database; no cut-off is given here.

Legend:
[1] = target: Delta-type opioid receptor (Homo sapiens) (UniProt P41143); test: Displacement of [3H]-naltrindole from human delta opioid receptor expressed in human HEK293 cells after 2 hrs by scintillation counting; assay type: cell-based
Delta-type opioid receptor (Homo sapiens), sequence (P41143 whole entry): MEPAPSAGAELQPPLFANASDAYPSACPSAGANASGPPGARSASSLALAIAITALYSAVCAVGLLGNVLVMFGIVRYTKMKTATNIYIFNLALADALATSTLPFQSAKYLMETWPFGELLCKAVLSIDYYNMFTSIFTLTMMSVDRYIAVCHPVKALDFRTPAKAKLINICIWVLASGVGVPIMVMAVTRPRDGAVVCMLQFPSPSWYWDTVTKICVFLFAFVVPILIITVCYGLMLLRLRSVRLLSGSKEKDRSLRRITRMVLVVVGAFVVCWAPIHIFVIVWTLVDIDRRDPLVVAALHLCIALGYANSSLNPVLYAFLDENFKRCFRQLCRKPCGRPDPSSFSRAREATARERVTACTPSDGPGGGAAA

[2] = target: Mu-type opioid receptor (Homo sapiens, UniProt P35372); test: Displacement of [3H]-naltrindole from human mu opioid receptor expressed in CHO cells after 2 hrs by scintillation counting; assay type: cell-based
Mu-type opioid receptor, sequence (P35372 whole entry): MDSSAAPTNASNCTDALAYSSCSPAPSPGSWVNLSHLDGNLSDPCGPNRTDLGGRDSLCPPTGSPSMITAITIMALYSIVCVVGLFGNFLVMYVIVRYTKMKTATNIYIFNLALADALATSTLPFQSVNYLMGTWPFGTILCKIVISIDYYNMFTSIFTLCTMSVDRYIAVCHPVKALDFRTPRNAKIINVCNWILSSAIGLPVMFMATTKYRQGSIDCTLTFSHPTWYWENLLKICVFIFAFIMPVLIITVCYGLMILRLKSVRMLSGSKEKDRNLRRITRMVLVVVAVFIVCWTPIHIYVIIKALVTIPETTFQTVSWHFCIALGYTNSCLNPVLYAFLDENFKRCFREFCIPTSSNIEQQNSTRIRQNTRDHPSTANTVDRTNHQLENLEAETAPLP

[3] = species: Homo sapiens; test: Selectivity ratio of IC50 for human kappa opioid receptor to IC50 for human NOP receptor
[4] = species: Homo sapiens; test: Selectivity ratio of IC50 for human mu opioid receptor to IC50 for human NOP receptor
[5] = target: T1, Nociceptin receptor (Homo sapiens, UniProt P41146); test: Antagonist activity at human NOP receptor expressed in human HEK293 cells assessed as inhibition of GTPgammaS binding in presence of 300 nM GDP relative to control; assay type: functional, cell-based
T1 sequence (P41146 whole entry): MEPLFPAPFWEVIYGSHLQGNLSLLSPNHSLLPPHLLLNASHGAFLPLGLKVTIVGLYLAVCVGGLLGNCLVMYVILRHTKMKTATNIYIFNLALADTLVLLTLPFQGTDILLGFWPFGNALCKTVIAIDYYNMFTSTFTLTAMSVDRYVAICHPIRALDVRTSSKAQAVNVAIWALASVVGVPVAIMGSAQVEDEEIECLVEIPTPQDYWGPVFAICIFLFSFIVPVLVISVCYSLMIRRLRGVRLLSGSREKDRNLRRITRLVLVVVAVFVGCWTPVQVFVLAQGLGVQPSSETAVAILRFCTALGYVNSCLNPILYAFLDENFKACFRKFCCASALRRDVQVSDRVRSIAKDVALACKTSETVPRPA

[6] = target: T1, Nociceptin receptor; test: Displacement of [125I]Tyr14-nociceptin from human NOP receptor expressed in human HEK293 cells after 90 mins by scintillation counting
[7] = target: Kappa-type opioid receptor (Homo sapiens, UniProt P41145); test: Displacement of [3H]-diprenorphine from human kappa opioid receptor expressed in human HEK293 cells after 2 hrs by scintillation counting
Kappa-type opioid receptor, sequence (P41145 whole entry): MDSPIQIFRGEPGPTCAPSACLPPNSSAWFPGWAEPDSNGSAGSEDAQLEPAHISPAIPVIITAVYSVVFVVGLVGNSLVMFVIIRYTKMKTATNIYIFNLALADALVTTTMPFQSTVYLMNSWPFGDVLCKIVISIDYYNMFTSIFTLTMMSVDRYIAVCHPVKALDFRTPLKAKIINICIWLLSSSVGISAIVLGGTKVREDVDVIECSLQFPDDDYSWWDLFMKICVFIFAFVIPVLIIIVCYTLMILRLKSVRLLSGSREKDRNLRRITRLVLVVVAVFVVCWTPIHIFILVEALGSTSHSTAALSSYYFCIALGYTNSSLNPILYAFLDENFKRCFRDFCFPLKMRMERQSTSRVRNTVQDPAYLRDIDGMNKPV

| Compound | Activity [1] | IC50 [2] [nM] | Ratio IC50 [3] | Ratio IC50 [4] | Activity [5] | IC50 [6] [nM] | IC50 [7] [nM] |
| --- | --- | --- | --- | --- | --- | --- | --- |
| CCCCCNCc1ccc(OCc2ccccc2C(=O)Nc2ccc3nc(C)cc(N)c3c2)cc1 | inactive | 4450 | 13 | 16 | Active | 732 | 3670 |
| Cc1cc(N)c2cc(NC(=O)c3ccccc3COc3ccc(CNCCCCCCCCCCN)cc3)ccc2n1 | inactive | 1400 | 86 | 13 | Active | 153 | 9100 |
| Cc1cc(N)c2cc(NC(=O)c3ccccc3COc3ccc(CNCCCCNCc4ccc(OCc5ccccc5C(=O)Nc5ccc6nc(C)cc(N)c6c5)cc4)cc3)ccc2n1 | inactive | 1590 | 27 | 39 | Active | 56.6 | 1090 |
| CCCCCCCNCc1ccc(OCc2ccccc2C(=O)Nc2ccc3nc(C)cc(N)c3c2)cc1 | inactive | 1980 | 6.2 | 6.6 | Active | 668 | 1850 |
| Cc1cc(N)c2cc(NC(=O)c3ccccc3COc3ccc(CNCCCCCCNCc4ccc(OCc5ccccc5C(=O)Nc5ccc6nc(C)cc(N)c6c5)cc4)cc3)ccc2n1 | inactive | 1390 | 30 | 31 | Active | 71.7 | 1350 |
| Cc1cc(N)c2cc(NC(=O)c3ccccc3COc3ccc(CNCCCCCNCc4ccc(OCc5ccccc5C(=O)Nc5ccc6nc(C)cc(N)c6c5)cc4)cc3)ccc2n1 | inactive | 2510 | 28 | 46 | Active | 76.2 | 1500 |
| Cc1cc(N)c2cc(NC(=O)c3ccccc3COc3ccc(CNCCCCCCCCN)cc3)ccc2n1 | inactive | 325 | 8.6 | 3.2 | Active | 144 | 872 |
| Cc1cc(N)c2cc(NC(=O)c3ccccc3COc3ccc(CNCCCCCCCCCN)cc3)ccc2n1 | inactive | 7070 | 40 | 46 | Active | 212 | 6180 |
| Cc1cc(N)c2cc(NC(=O)c3ccccc3COc3ccc(CNCCCNCc4ccc(OCc5ccccc5C(=O)Nc5ccc6nc(C)cc(N)c6c5)cc4)cc3)ccc2n1 | inactive | 468 | 177 | 15 | Active | 76.5 | 5480 |
| Cc1cc(N)c2cc(NC(=O)c3ccccc3COc3ccc(CNCCCCN)cc3)ccc2n1 | inactive | 5330 | 7.2 | 9 | Active | 800 | 4260 |
| CCCCCCNCc1ccc(OCc2ccccc2C(=O)Nc2ccc3nc(C)cc(N)c3c2)cc1 | inactive | 2590 | 1.2 | 2.6 | Active | 1220 | 1160 |
| CCCCCCCCCCNCc1ccc(OCc2ccccc2C(=O)Nc2ccc3nc(C)cc(N)c3c2)cc1 | inactive | 2750 | 15 | 9.6 | Active | 405 | 4350 |
| Cc1cc(N)c2cc(NC(=O)c3ccccc3COc3ccc(CNCCCCCCN)cc3)ccc2n1 | inactive | 6000 | 1.5 | 7.4 | Active | 1110 | 1220 |
